The source of these data is patent US20250034170A1, “SMALL MOLECULE MODULATORS OF GLUCOCEREBROSIDASE ACTIVITY AND USES THEREOF” (Vanqua Bio, Inc., priority 2021, published 2025).

pEC50: −log10 of the molar value.

For orientation: pEC50 means the negative decadic logarithm of the EC50, by convention in mol/L.

In the test the target is T1, GCase (Homo sapiens, UniProt P04062).
T1 construct: endogenous in cells; host or cells: HeLa cells
T1 sequence (P04062 40-536): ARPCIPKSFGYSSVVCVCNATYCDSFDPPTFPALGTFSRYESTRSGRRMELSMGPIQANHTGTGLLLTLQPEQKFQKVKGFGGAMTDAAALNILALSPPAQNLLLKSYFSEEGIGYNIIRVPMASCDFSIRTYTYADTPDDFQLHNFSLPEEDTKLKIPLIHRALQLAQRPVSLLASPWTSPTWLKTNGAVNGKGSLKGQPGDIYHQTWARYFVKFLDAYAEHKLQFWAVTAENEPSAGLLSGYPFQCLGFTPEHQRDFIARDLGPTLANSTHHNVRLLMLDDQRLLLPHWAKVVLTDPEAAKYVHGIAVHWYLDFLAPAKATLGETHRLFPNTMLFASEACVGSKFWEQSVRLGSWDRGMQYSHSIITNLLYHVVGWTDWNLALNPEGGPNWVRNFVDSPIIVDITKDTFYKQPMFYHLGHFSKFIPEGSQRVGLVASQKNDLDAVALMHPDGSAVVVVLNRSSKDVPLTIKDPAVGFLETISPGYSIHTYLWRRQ
The test can be described thus: activation of GCase in a live cell PFB assay in HELA cells. Format: cell-based. As to conditions: activation of GCase, EC50 ranges. As to the method:
Exemplary compounds were evaluated for activation of GCase in a live cell PFB assay in HELA cells (essentially as described in Ysselstein et al., “LRRK2 kinase activity regulates lysosomal glucocerebrosidase in neurons derived from Parkinson's disease patients” Nature Communications (2019) 10:5570). […] EC50 ranges: A: <10 μM; B: >10-50 μM; C: >50-100 μM; D: >100 μM.
For the compound `CCn1c(=O)n(CC(F)F)c2ncc(N3CCC4(CN(c5cc(C(F)(F)F)nc(C)n5)C4)C3)nc21` [Cmpd 1075], the pEC50 was 4.30 to 5.00.
In turn, `Cc1cc(N2CC3(CCN(c4ncc5cnn(CC(C)(F)F)c5n4)C3)C2)nc(C(F)(F)F)n1` [Cmpd 1076] had a pEC50 of 4.30 to 5.00.
Under `Cc1nc(N2CC3(CCN(c4cnc5c(n4)n(CC(F)F)c(=O)n5C)C3)C2)cc(C(F)(F)F)n1` [Cmpd 1077] stands over 5.00; under `Cc1nc(N2CC3(CCN(c4cnc5c(n4)n(C)c(=O)n5CC(F)F)C3)C2)cc(C(F)(F)F)n1` [Cmpd 1078], over 5.00; under `Cc1nc(N2CC[C@]3(CCN(c4ncc5c(C)nn(C6COC6)c5n4)C3)C2)cc(C(F)(F)F)n1` [Cmpd 1079], 4.30 to 5.00.
Under `Cc1nc(N2CC[C@@]3(CCN(c4ncc5c(C)nn(C6COC6)c5n4)C3)C2)cc(C(F)(F)F)n1` [Cmpd 1080] stands 4.30 to 5.00; under `CCn1c(=O)n(CC(F)F)c2nc(N3CCC4(CN(c5cc(C(F)(F)F)nc(C)n5)C4)C3)ncc21` [Cmpd 1081], over 5.00; under `Cc1nc(N2CC3(CCN(c4ncc5c(n4)n(CC(F)F)c(=O)n5C)C3)C2)cc(C(F)(F)F)n1` [Cmpd 1082], over 5.00.
The compound `CCn1c(=O)n(CC(F)F)c2nc(N3CCC4(C3)CN(c3cnc(C)nc3C(F)(F)F)C4)ncc21` [Cmpd 1083] had a pEC50 of 4.30 to 5.00.
Turning to `Cc1nc(N2CC3(CCN(c4nc5c(cnn5CC(F)F)c(=O)n4C)C3)C2)cc(C(F)(F)F)n1` [Cmpd 1084], the pEC50 was over 5.00.
Under `CCn1c(=O)n(CC(F)F)c2nc(N3CCC4(CC3)CCN(c3cnc(C(F)(F)F)nc3C)C4)cnc21` [Cmpd 1085] stands over 5.00.
Compound `Cc1nc(C(F)(F)F)ncc1N1CCC2(CCN(c3nc4c(cnn4CC(F)F)c(=O)n3C)CC2)C1` [Cmpd 1086] gave a pEC50 of 4.30 to 5.00.
Under `Cc1cc(N2CCC3(CCN(c4nc5c(cnn5CC(F)F)c(=O)n4C)CC3)C2)nc(C(F)(F)F)n1` [Cmpd 1087] stands over 5.00; under `CC(F)(F)c1ncc(N2CC3(CCN(c4cnc5cnn(CC(F)F)c5n4)C3)C2)cn1` [Cmpd 1088], over 5.00; under `CCc1nc(N2CC3(CCN(c4cnc5cnn(CC(F)F)c5n4)C3)C2)cc(C(F)(F)F)n1` [Cmpd 1089], 4.30 to 5.00.
For the compound `FC(F)(F)c1cc(N2CC3(CCN(c4cnc5cnn(C6CCOCC6)c5n4)C3)C2)ccn1` [Cmpd 1090], the pEC50 is under 4.00.
Under `FC(F)(F)c1cc(N2CC3(CCN(c4cnc5cnn([C@@H]6CCOC6)c5n4)C3)C2)ccn1` [Cmpd 1091] stands under 4.00; under `FC(F)(F)c1cc(N2CC3(CCN(c4cnc5cnn([C@H]6CCOC6)c5n4)C3)C2)ccn1` [Cmpd 1092], under 4.00; under `COc1nn(CC(F)F)c2nc(N3CCC4(C3)CN(c3cnc(C(F)(F)F)nc3C)C4)cnc12` [Cmpd 1093], 4.30 to 5.00.
Under `COc1nn(CC(F)F)c2nc(N3CCC4(CC3)CCN(c3cnc(C(F)(F)F)nc3C)C4)cnc12` [Cmpd 1094] stands over 5.00.
Under `COc1nn(CC(F)F)c2nc(N3CCC4(CN(c5cc(C(F)(F)F)nc(C)n5)C4)C3)cnc12` [Cmpd 1095] stands 4.30 to 5.00.
The compound `COc1nn(CC(F)F)c2nc(N3CCC4(CCN(c5cc(C(F)(F)F)nc(C)n5)C4)CC3)cnc12` [Cmpd 1096] gave a pEC50 of over 5.00.
Under `COc1nn(CC(F)F)c2nc(N3CCC4(CN(c5cc(C)nc(C(F)(F)F)n5)C4)C3)cnc12` [Cmpd 1097] stands 4.30 to 5.00.
Under `COc1nn(CC(F)F)c2nc(N3CCC4(CCN(c5cc(C)nc(C(F)(F)F)n5)C4)CC3)cnc12` [Cmpd 1098] stands over 5.00.
In turn, `CCn1c(N2CCC3(CCN(c4ccnc(C(F)(F)F)c4)C3)CC2)nc2c(cnn2CC(F)F)c1=O` [Cmpd 1099] gave a pEC50 of over 5.00.
Under `CCn1c(N2CCC3(CCN(c4ccnc(C(F)(F)F)c4)C3)C2)nc2c(cnn2CC(F)F)c1=O` (stereo not shown) [Cmpd 1100] stands 4.30 to 5.00.
Under `CCn1c(N2CCC3(CN(c4ccnc(C(F)(F)F)c4)C3)C2)nc2c(cnn2CC(F)F)c1=O` [Cmpd 1101] stands 4.30 to 5.00; under `CCn1c(N2CCC3(CCN(c4cc(C(F)(F)F)nc(C)n4)C3)CC2)nc2c(cnn2CC(F)F)c1=O` [Cmpd 1102], over 5.00; under `CCn1c(N2CCC3(CN(c4cc(C(F)(F)F)nc(C)n4)C3)C2)nc2c(cnn2CC(F)F)c1=O` [Cmpd 1103], over 5.00.
For the compound `Cc1nn(CC(F)F)c2nc(N3CCC4(CCN(c5ccnc(C(F)(F)F)c5)C4)CC3)n(C)c(=O)c12` [Cmpd 1104], the pEC50 is 4.30 to 5.00.
Under `CCn1c(N2CCC3(CCN(c4cc(C)nc(C(F)(F)F)n4)C3)CC2)nc2c(cnn2CC(F)F)c1=O` [Cmpd 1105] stands over 5.00; under `CCCn1c(N2CCC3(CCN(c4cc(C(F)(F)F)nc(C)n4)C3)CC2)nc2c(cnn2CC(F)F)c1=O` [Cmpd 1106], over 5.00.
As for `Cc1nc(N2CCC3(CCN(c4nc5c(cnn5CC(F)F)c(=O)n4CC(C)C)CC3)C2)cc(C(F)(F)F)n1` [Cmpd 1107], the pEC50 is over 5.00.
Consider `Cc1nc(N2CCC3(CCN(c4nc5c(cnn5CC(F)F)c(=O)n4CC4CC4)CC3)C2)cc(C(F)(F)F)n1` [Cmpd 1108], for which the pEC50 is over 5.00.
In turn, `CCn1c(N2CCC3(CCN(c4cc(C(F)(F)F)nc(C)n4)C3)CC2)nc2c(cnn2C2COC2)c1=O` [Cmpd 1110] showed a pEC50 of 4.00 to 4.30.
Compound `CCCn1c(N2CCC3(CN(c4cc(C(F)(F)F)nc(C)n4)C3)C2)nc2c(cnn2CC(F)F)c1=O` [Cmpd 1111] showed a pEC50 of 4.30 to 5.00.
Compound `Cc1nc(N2CC3(CCN(c4nc5c(cnn5CC(F)F)c(=O)n4CC(C)C)C3)C2)cc(C(F)(F)F)n1` [Cmpd 1112] gave a pEC50 of over 5.00.
Under `Cc1nc(N2CC3(CCN(c4nc5c(cnn5CC(F)F)c(=O)n4CC4CC4)C3)C2)cc(C(F)(F)F)n1` [Cmpd 1113] stands 4.30 to 5.00; under `CCn1c(N2CCC3(CN(c4cc(C(F)(F)F)nc(C)n4)C3)C2)nc2c(cnn2CC(F)(F)F)c1=O` [Cmpd 1114], over 5.00; under `CCn1c(N2CCC3(CN(c4cc(C(F)(F)F)nc(C)n4)C3)C2)nc2c(cnn2C2COC2)c1=O` [Cmpd 1115], 4.30 to 5.00.
Take `CC(F)(F)Cn1ncc2ncc(N3CCC4(CN(c5ccnc(C(F)(F)F)c5)C4)C3)nc21` [Cmpd 1116]: the pEC50 is 4.30 to 5.00.
In turn, `Cc1nc(N2CC3(CCN(c4cnc5cnn(CC(C)(F)F)c5n4)C3)C2)cc(C(F)(F)F)n1` [Cmpd 1117] showed a pEC50 of under 4.00.
Take `Cc1nc(N2CC3(CCN(c4cncc(-c5ccn(CC(F)F)n5)n4)C3)C2)cc(C(F)(F)F)n1` [Cmpd 1118]: the pEC50 is under 4.00.
`Cc1nc(N2CC3(CCN(c4cncc(-c5ccnn5CC(F)F)n4)C3)C2)cc(C(F)(F)F)n1` [Cmpd 1119] had a pEC50 of 4.30 to 5.00.
In turn, `Cc1nc(N2CC3(CCN(c4cncc(-c5ccn(CC(F)(F)F)n5)n4)C3)C2)cc(C(F)(F)F)n1` [Cmpd 1120] had a pEC50 of under 4.00.
Consider `Cc1nc(N2CC3(CCN(c4cncc(-c5ccnn5CC(F)(F)F)n4)C3)C2)cc(C(F)(F)F)n1` [Cmpd 1121], for which the pEC50 is under 4.00.
In the case of `Cc1nc(N2CC[C@]3(CCN(c4cnc5c(C)nn(C6COC6)c5n4)C3)C2)cc(C(F)(F)F)n1` [Cmpd 1122], the pEC50 is 4.30 to 5.00.
Regarding `Cc1nc(N2CC[C@@]3(CCN(c4cnc5c(C)nn(C6COC6)c5n4)C3)C2)cc(C(F)(F)F)n1` [Cmpd 1123], the pEC50 is 4.30 to 5.00.
Under `Cc1nc(N2CC3(CCN(c4cncc(-c5cnn(CC(F)F)c5)n4)C3)C2)cc(C(F)(F)F)n1` [Cmpd 1124] stands 4.00 to 4.30; under `CC(C)(C)Cn1ncc2ncc(N3CCC4(CN(c5ccnc(C(F)(F)F)c5)C4)C3)nc21` [Cmpd 1125], 4.30 to 5.00.
On to `CC(C)Cn1ncc2ncc(N3CCC4(CN(c5ccnc(C(F)(F)F)c5)C4)C3)nc21` [Cmpd 1126], for which the pEC50 is over 5.00.
Under `Cc1nc(N2CC3(CCN(c4ncc5c(C)nn(CC(C)(F)F)c5n4)C3)C2)cc(C(F)(F)F)n1` [Cmpd 1127] stands over 5.00; under `Cc1nc(N2CC3(CCN(c4cnc5c(C)nn(CC(C)(F)F)c5n4)C3)C2)cc(C(F)(F)F)n1` [Cmpd 1128], 4.30 to 5.00.
As to `Cc1cc(N2CC3(CCN(c4cnc5c(C)nn(CC(C)(F)F)c5n4)C3)C2)nc(C(F)(F)F)n1` [Cmpd 1129], the pEC50 was over 5.00.
Under `Cc1cc(N2CC3(CCN(c4ncc5c(C)nn(CC(C)(F)F)c5n4)C3)C2)nc(C(F)(F)F)n1` [Cmpd 1130] stands over 5.00; under `Cc1nc(N2CC3(CCN(c4nccc(-c5nncs5)n4)C3)C2)cc(C(F)(F)F)n1` [Cmpd 1131], under 4.00; under `FC(F)Cn1ncc2ncc(N3CC[C@@]4(CCN(c5cnc(C(F)(F)F)nc5)C4)C3)nc21` [Cmpd 1132], 4.30 to 5.00.
On to `FC(F)Cn1ncc2ncc(N3CC[C@]4(CCN(c5cnc(C(F)(F)F)nc5)C4)C3)nc21` [Cmpd 1133], for which the pEC50 is 4.30 to 5.00.
Consider `Cc1cc(N2CC3(CCN(c4cnc5cnn(CC(C)(F)F)c5n4)C3)C2)nc(C(F)(F)F)n1` [Cmpd 1134], for which the pEC50 was under 4.00.
As for `Cc1nc(N2CC3(CCN(c4ncc5cnn(CC(C)(F)F)c5n4)C3)C2)cc(C(F)(F)F)n1` [Cmpd 1135], the pEC50 is 4.30 to 5.00.
Under `CCn1nc(C(F)(F)F)c2ncc(N3CCC4(CN(c5cc(C(F)(F)F)nc(C)n5)C4)C3)nc21` [Cmpd 1136] stands over 5.00.
